Laboratory results taken from US8071605B2, “Piperidine compounds for use in the treatment of bacterial infections” (AstraZeneca AB, priority 2008, dated 2011).
In brackets after ≈: the same amount, converted by molar mass.

These compounds were tested against S. aureus GyrB ATPase (Staphylococcus aureus, UniProt P0A0K8) (assay: S. aureus GyrB ATPase inhibition (ammonium molybdate/malachite green phosphate detection)). Conditions: compound concentration of 1 μM (unless otherwise noted).
Sequence of S. aureus GyrB ATPase (P0AES4 whole entry): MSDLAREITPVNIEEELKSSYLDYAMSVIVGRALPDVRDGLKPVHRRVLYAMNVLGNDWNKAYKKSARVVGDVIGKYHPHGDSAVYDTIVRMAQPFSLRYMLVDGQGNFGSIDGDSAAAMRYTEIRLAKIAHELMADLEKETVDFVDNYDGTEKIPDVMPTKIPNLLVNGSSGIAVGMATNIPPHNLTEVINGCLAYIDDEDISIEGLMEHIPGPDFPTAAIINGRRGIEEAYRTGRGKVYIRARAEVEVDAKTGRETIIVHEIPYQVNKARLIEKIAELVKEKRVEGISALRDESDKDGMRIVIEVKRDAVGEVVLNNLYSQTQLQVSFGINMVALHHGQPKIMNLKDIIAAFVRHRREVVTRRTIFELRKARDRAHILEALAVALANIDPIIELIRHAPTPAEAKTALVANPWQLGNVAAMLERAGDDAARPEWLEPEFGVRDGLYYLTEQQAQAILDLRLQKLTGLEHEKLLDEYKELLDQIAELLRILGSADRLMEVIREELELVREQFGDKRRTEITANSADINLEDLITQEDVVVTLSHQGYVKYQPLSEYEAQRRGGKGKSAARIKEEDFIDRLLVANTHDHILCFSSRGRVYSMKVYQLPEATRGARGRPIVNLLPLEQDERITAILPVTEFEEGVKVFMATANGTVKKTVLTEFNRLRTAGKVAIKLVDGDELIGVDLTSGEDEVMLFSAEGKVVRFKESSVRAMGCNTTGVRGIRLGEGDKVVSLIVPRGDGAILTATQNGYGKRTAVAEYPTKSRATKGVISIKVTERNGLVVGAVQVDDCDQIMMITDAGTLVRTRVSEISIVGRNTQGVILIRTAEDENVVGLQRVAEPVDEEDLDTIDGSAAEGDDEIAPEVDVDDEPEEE
Sequence of S. aureus GyrB ATPase (P0A0K8 whole entry): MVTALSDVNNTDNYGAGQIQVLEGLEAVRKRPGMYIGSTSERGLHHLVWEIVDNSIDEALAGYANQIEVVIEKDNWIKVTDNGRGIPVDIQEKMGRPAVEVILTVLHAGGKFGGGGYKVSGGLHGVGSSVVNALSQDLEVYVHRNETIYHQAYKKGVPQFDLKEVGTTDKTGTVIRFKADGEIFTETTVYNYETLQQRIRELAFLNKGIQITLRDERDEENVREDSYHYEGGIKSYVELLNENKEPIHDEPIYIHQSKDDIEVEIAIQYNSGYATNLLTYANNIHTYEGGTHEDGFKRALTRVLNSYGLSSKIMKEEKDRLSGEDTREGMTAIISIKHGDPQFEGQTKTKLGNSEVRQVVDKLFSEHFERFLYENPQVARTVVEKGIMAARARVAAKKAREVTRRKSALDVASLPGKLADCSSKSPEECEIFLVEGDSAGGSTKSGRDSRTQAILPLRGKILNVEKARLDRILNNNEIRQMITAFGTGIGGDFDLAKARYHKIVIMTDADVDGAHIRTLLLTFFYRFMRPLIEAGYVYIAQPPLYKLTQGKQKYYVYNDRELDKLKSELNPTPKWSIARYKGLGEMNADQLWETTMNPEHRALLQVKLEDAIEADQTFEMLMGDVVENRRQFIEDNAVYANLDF
Assay type: biochemical
Outline: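 S. aureus GyrB (250 pM) with E. coli GyrA (250 pM), 250 μM ATP and sheared DNA in pH 7.5 Hepes; phosphate release by malachite green/molybdate at 650 nm. Values are percent inhibition at 1 μM compound unless noted, against 2% DMSO and EDTA controls.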
With Cc1[nH]c(C(=O)N[C@@H]2CCN(c3nc(-c4ncnn4C)c(C(=O)O)s3)C[C@@H]2C)c(Cl)c1Cl [Example 22] the inhibition at 1 µM was 112%. In the case of Cc1[nH]c(C(=O)N[C@@H]2CCN(c3nc(-c4cnccn4)c(C(=O)O)s3)C[C@@H]2C)cc1Cl [Example 21], the inhibition at 1 µM is reported as 118%. With CO[C@H]1CN(c2nc(-c3cnc(N4CCN(CC5CCCN(C)C5)CC4)cn3)c(C(=O)O)s2)CC[C@H]1NC(=O)c1[nH]c(C)c(Cl)c1Cl (stereo partly shown) [Example 135] the inhibition at 1 µM was 98%. For CCO[C@H]1CN(c2nc(-c3cnc(NCCN4CCOCC4)cn3)c(C(=O)O)s2)CC[C@H]1NC(=O)c1[nH]c(C)c(Cl)c1Cl [Example 91], the inhibition at 1 µM was 105%. In the case of CCO[C@H]1CN(c2nc(-c3cnc(N4CCN[C@H](C)C4)cn3)c(C(=O)O)s2)CC[C@H]1NC(=O)c1[nH]c(C)c(Cl)c1Cl [Example 102], the inhibition at 1 µM is reported as 112%. In the case of C=CCO[C@H]1CN(c2nc(-c3ncccc3F)c(C(=O)O)s2)CC[C@H]1NC(=O)c1[nH]c(C)c(Cl)c1C#N [Example 6], the inhibition at 1 µM is reported as 99%. Compound CCCO[C@H]1CN(c2nc(-c3cnccn3)c(C(=O)O)s2)CC[C@H]1NC(=O)c1cc(Cl)c(C)[nH]1 [Example 203, 2-[(3S,4R)-4-{[(4-chloro-5-methyl-1H-pyrrol-2-yl)carbonyl]amino}-3-propoxypiperidin-1-yl]-4-(pyrazin-2-yl)-1,3-thiazole-5-carboxylic acid] has an inhibition at 1 µM of 108%. For CCO[C@H]1CN(c2nc(-c3cnc(N4CCN(CCN(CC)CC)CC4)cn3)c(C(=O)O)s2)CC[C@H]1NC(=O)c1[nH]c(C)c(Cl)c1Cl [Example 101], the inhibition at 1 µM was 117%. Work on CO[C@H]1CN(c2nc(-c3cnc(N4CCNCC4)cn3)c(C(=O)O)s2)CC[C@H]1NC(=O)c1[nH]c(C)c(Cl)c1Cl [Example 126] yielded an inhibition at 1 µM of 108%. Cc1[nH]c(C(=O)N[C@@H]2CCN(c3nc(-c4cnc(N5CCN(C)CC5)cn4)c(C(=O)O)s3)C[C@@H]2C)c(Cl)c1Cl [Example 167, 2-[(3S,4R)-4-{[(3,4-dichloro-5-methyl-1H-pyrrol-2-yl)carbonyl]amino}-3-methylpiperidin-1-yl]-4-[5-(4-methylpiperazin-1-yl)pyrazin-2-yl]-1,3-thiazole-5-carboxylic acid] was tested, and the inhibition at 1 µM was 113%. Work on Cc1[nH]c(C(=O)N[C@@H]2CCN(c3nc(-c4ncccc4F)c(C(=O)O)s3)C[C@@H]2C)cc1Cl [Example 20] yielded an inhibition at 1 µM of 118%. COCCn1ccnc1-c1nc(N2CC[C@@H](NC(=O)c3[nH]c(C)c(Cl)c3Cl)[C@@H](C)C2)sc1C(=O)O [Example 23] gave an inhibition at 1 µM of 100%. C=CCO[C@H]1CN(c2nc(-c3cnccn3)c(C(=O)O)s2)CC[C@H]1NC(=O)c1[nH]c(C)c(Cl)c1Cl [Example 4] gave an inhibition at 1 µM of 97%. In the case of CCO[C@H]1CN(c2nc(-c3cnc(N4CCN(C)CC4)cn3)c(C(=O)O)s2)CC[C@H]1NC(=O)c1[nH]c(C)c(Cl)c1Cl [Example 88], the inhibition at 1 µM is reported as 107%. For Cc1[nH]c(C(=O)N[C@@H]2CCN(c3nc(-c4cnc(NCCN(C)C)cn4)c(C(=O)O)s3)C[C@@H]2C)c(Cl)c1Cl [Example 174, 2-[(3S,4R)-4-{[(3,4-dichloro-5-methyl-1H-pyrrol-2-yl)carbonyl]amino}-3-methylpiperidin-1-yl]-4-(5-{[2-(dimethylamino)ethyl]amino}pyrazin-2-yl)-1,3-thiazole-5-carboxylic acid], the inhibition at 1 µM was 102%. In the case of CO[C@H]1CN(c2nc(-c3cnc(OCCN(C)C)cn3)c(C(=O)O)s2)CC[C@H]1NC(=O)c1[nH]c(C)c(Cl)c1Cl [Example 63], the inhibition at 1 µM is reported as 104%. CO[C@H]1CN(c2nc(-c3cnc(NCCN4CCCC4=O)cn3)c(C(=O)O)s2)CC[C@H]1NC(=O)c1[nH]c(C)c(Cl)c1Cl [Example 127] gave an inhibition at 1 µM of 110%. For Cc1[nH]c(C(=O)N[C@@H]2CCN(c3nc(-c4ncnn4C)c(C(=O)O)s3)C[C@@H]2C)c(C#N)c1Cl [Example 26], the inhibition at 1 µM was 97%. Compound CO[C@H]1CN(c2nc(-c3cnc(N4CCOCC4)cn3)c(C(=O)O)s2)CC[C@H]1NC(=O)c1[nH]c(C)c(Cl)c1Cl [Example 125] has an inhibition at 1 µM of 111%. CCO[C@H]1CN(c2nc(-c3ncccc3F)c(C(=O)O)s2)CC[C@H]1NC(=O)c1cc(Cl)c(C)[nH]1 [Example 17] gave an inhibition at 1 µM of 106%. CCO[C@H]1CN(c2nc(-c3cnccn3)c(C(=O)O)s2)CC[C@H]1NC(=O)c1[nH]c(C)c(Cl)c1C#N [Example 15] was tested, and the inhibition at 1 µM was 98%. With CO[C@H]1CN(c2nc(-c3nccc(N4CCN(C)CC4)n3)c(C(=O)O)s2)CC[C@H]1NC(=O)c1[nH]c(C)c(Cl)c1Cl [Example 191, 2-[(3S,4R)-4-{[(3,4-dichloro-5-methyl-1H-pyrrol-2-yl)carbonyl]amino}-3-methoxypiperidin-1-yl]-4-[4-(4-methylpiperazin-1-yl)pyrimidin-2-yl]-1,3-thiazole-5-carboxylic acid] the inhibition at 1 µM was 102%. Compound CCN1CCN(c2ccnc(-c3nc(N4CC[C@@H](NC(=O)c5[nH]c(C)c(Cl)c5Cl)[C@@H](OC)C4)sc3C(=O)O)n2)CC1 [Example 193, 2-[(3S,4R)-4-{[(3,4-dichloro-5-methyl-1H-pyrrol-2-yl)carbonyl]amino}-3-methoxypiperidin-1-yl]-4-[4-(4-ethylpiperazin-1-yl)pyrimidin-2-yl]-1,3-thiazole-5-carboxylic acid] has an inhibition at 1 µM of 109%. In the case of CCCO[C@H]1CN(c2nc(-c3ncccc3F)c(C(=O)O)s2)CC[C@H]1NC(=O)c1cc(Cl)c(C)[nH]1 [Example 202, 2-[(3S,4R)-4-{[(4-chloro-5-methyl-1H-pyrrol-2-yl)carbonyl]amino}-3-propoxypiperidin-1-yl]-4-(3-fluoropyridin-2-yl)-1,3-thiazole-5-carboxylic acid], the inhibition at 1 µM is reported as 103%.

Each compound was assayed on Streptococcus pneumoniae (assay: Bacterial susceptibility testing in liquid media (MIC)). Conditions: against Streptococcus pneumoniae; lowest concentration reducing growth by 80% or more.
Assay type: cell-based
From the text: Compounds may be tested for antimicrobial activity by susceptibility testing in liquid media. Compounds may be dissolved in dimethylsulfoxide and tested in 10 doubling dilutions in the susceptibility assays. The organisms used in the assay may be grown overnight on suitable agar media and then suspended in a liquid medium appropriate for the growth of the organism. The suspension can be a 0.5 McFarland and a further 1 in 10 dilution can be made into the same liquid medium to prepare the final organism suspension in 100 μL. Plates can be incubated under appropriate conditions at 37° C. for 24 hrs prior to reading. The Minimum Inhibitory Concentration (MIC) may be determined as the lowest drug concentration able to reduce growth by 80% or more.
For COCCn1ccnc1-c1nc(N2CC[C@@H](NC(=O)c3[nH]c(C)c(Cl)c3Cl)[C@@H](C)C2)sc1C(=O)O [Example 23], the MIC was 0.78 µg/mL (≈ 1.44 µM).
